Reference: patent US6395906B1, “Intermediates to pesticidal 1-arylpyrazoles” (Rhone-Poulenc Inc., priority 1995, dated 2002)

Assays:
Format in all cases: in vivo
[1] = test system: buckthorn aphid (Aphis nasturtii); assay: Buckthorn aphid (BA) foliar spray test; conditions: nasturtium plants wet to runoff, 100 or 500 ppm; dead aphids counted after one day
Description: (§1) For the tick, aphids, souther armyworm, tobacco budworm, house fly, Mexican bean beetle, American cockroach, cat flea, souther corn rootworm, western corn rootworm, black cutworm, and southern root-knot nematode, a solution or suspension was prepared by adding the test compound to a solution of dimethylformamide, acetone, emulsifiers which are alkylaryl polyether alcohols organic sulfonates, and water. The result was a 100 or 500 ppm concentration of the test compound.
Buckthorn aphid (BA) or cotton aphid (CA): Adult and nymphal stages of buckthorn or cotton aphid were reared on potted dwarf nasturtium or cotton plants, respectively. Plants infested with 100-150 aphids were wet to runoff with the 100 or 500 ppm test compound formulation. As an untreated control, a water-acetone-DMF-emulsifier solution containing no test compound was also applied to runoff to infested plants. The treated plants were stored for one day for buckthorn aphid and three days for cotton aphid, after which the dead aphids were counted.

[2] = test system: Mexican bean beetle (Epilachna varivestis); assay: Mexican bean beetle (MBB) treated bean leaf test; conditions: bean leaves, 100 or 500 ppm; second instar larvae, five days
Description: as §1
Southern armyworm (SAW), Mexican bean beetle (MBB): Bean leaves were wet to runoff with the 100 or 500 ppm test compound formulation. As an untreated control, a water-acetone-DMF-emulsifier solution containing no test compound was also applied wet to runoff to bean leaves. Five or six randomly selected second instar southern armyworn larvae or Mexican bean bettle larvae were introduced into each plastic container with the dry treated leaves. The container was closed and held for five days. Larvae which were unable to move the length of the body, even upon stimulation by prodding, were considered dead.

[3] = test system: tobacco budworm (Heliothis virescens); assay: Tobacco budworm (TBW) treated cotton leaf test; conditions: cotton leaves, 100 ppm; second instar larvae, five days
Outline: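 Leaf-dip test: cotton leaves wetted to runoff with 100 ppm compound in DMF/acetone/emulsifier/water, dried, then offered to ten second-instar Heliothis virescens larvae in closed cups with moist wicks. Mortality scored after five days; larvae unable to move one body length on prodding counted dead; solvent-emulsifier control run alongside.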

[4] = test system: cat flea (Ctenocephalides felis); assay: Cat flea (CF) treated filter paper contact test; conditions: 500 ppm, adult fleas, contact mortality 1 day after infestation
Description: as §1
(§2) Cat flea (CF), dog tick (DT): Filter papers were treated with an aliquot of the 500 ppm test formulation. As an untreated control, an aliquot of a water-acetone-DMF-emulsifier solution containing no test compound was applied in a similar manner. When dry, 2 treated filters were placed in a vial for the flea and another 2 filters in a vial for the tick. Five adult fleas were added to one vial and 5 adult ticks to the second vial. Contact mortality was assessed 1 day after infestation for the flea and 14 days after infestation for the tick.

[5] = test system: American cockroach (Periplaneta americana); assay: American cockroach (ACR) treated food pellet test; conditions: food pellets with 500 ppm formulation; nymphs, contact and feeding mortality 1 and 5 days after infestation
Outline: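 Pet-food pellets treated with 500 ppm compound in DMF/acetone/emulsifier/water; solvent-only blank as control. Nymphs added after 48 h; contact and feeding mortality scored 1 and 5 days post-infestation.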

[6] = test system: western corn rootworm (Diabrotica virgifera virgifera); assay: Western corn rootworm (WCRW) soil test; conditions: soil concentration 0.15 or 0.5 ppm; neonate larvae, mortality six days after infestation
Outline: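 Test formulation applied to dry sandy loam soil in a jar for 0.15 or 0.5 ppm soil concentration; solvent-only untreated control. After 24 h covered incubation, four germinated corn seedlings and ten neonate larvae added. Mortality assessed 6 days after infestation by Berlese funnel extraction.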

[7] = test system: dog tick (Rhipicephalus sanguineus); assay: Dog tick (DT) treated filter paper contact test; conditions: 500 ppm, adult ticks, contact mortality 14 days after infestation
Description: as §1, §2

Row | Structure (SMILES) | BA [1] | MBB [2] | TBW [3] | CF [4] | ACR [5] | WCRW [6] | DT [7]
1 | CC(=O)c1c(S(=O)(=O)C(F)(F)F)c(C#N)nn1-c1c(Cl)cc(C(F)(F)F)cc1Cl [Compound 1, 5-Acetyl-3-cyano-1-(2,6-dichloro-4-trifluoromethylphenyl)-4-trifluoromethylsulfonylpyrazole] | + (active against 1 or more insects described above up to 100% mortality. This activity is indicated by a “+”) | + (active against 1 or more insects described above up to 100% mortality. This activity is indicated by a “+”) | + (active against 1 or more insects described above up to 100% mortality. This activity is indicated by a “+”) | – | – | – | –
2 | CCOC(OCC)c1c(SC(F)(F)F)c(C#N)nn1-c1c(Cl)cc(C(F)(F)F)cc1Cl [Compound 18, 3-Cyano-1-(2,6-dichloro-4-trifluoromethylphenyl)-5-diethoxymethyl-4-trifluoromethylthiopyrazole] | – | – | – | + (active against 1 or more insects described above up to 100% mortality. This activity is indicated by a “+”) | + (active against 1 or more insects described above up to 100% mortality. This activity is indicated by a “+”) | + (active against 1 or more insects described above up to 100% mortality. This activity is indicated by a “+”) | + (active against 1 or more insects described above up to 100% mortality. This activity is indicated by a “+”)
